This is an account of results in patent US5298523A, “Method for treating transplant patients using mycalamide compounds” (priority 1992, dated 1994).

Data set [1] concerns murine CD4^+ T cells. The data set can be described thus: Activation of CD4+ T cells by PMA/mB7. The conditions noted are these: in words. It counts as cell-based, murine (BALB/c). The procedure:
(A) Costimulation of T cells with anti-CD3 mAb and mB7. […] (B) Costimulation of T cells with mB7 and PMA. […] All cultures were incubated for 48 hours and pulsed with 1 μCi [ ^3 H] thymidine/well for the last 6 hours of the incubation period to assay for T cell proliferation.
(A) Costimulation of T cells with anti-CD3 mAb and mB7. 2×10^5 purified BALB/c CD4^+ T lymphocytes were stimulated with the indicated concentrations of anti-CD3 mAb in the presence of medium (.largecircle.), 2×10^4 paraformaldehyde-fixed CHO-mB7 cells (.quadrature.), or 2×10^4 paraformaldehyde-fixed CHO-mB7 cells in the presence of 0.1 nM FK506 (.gradient.), 1 nM FK506 (Δ), or 10 nM FK506 ( ). (B) Costimulation of T cells with mB7 and PMA. 2×10^5 purified BALB/c CD4^+ T lymphocytes were stimulated with the indicated concentrations of PMA and either medium (.largecircle.), 2×10^4 paraformaldehyde-fixed CHO-mB7 cells (.quadrature.), or paraformaldehyde-fixed CHO-mB7 cells in the presence of 0.1 nM FK506 (.gradient.), 1 nM FK506 (Δ), or 10 nM FK506 ( ). All cultures were incubated for 48 hours and pulsed with 1 μCi [^3 H] thymidine/well for the last 6 hours of the incubation period to assay for T cell proliferation.
(A) Costimulation of T cells with anti-CD3 mAb and mB7. […]

Data set [2] has as its system graft vs. host reaction, CB6F1 mice grafted with BALB/c splenocytes. The data set can be described thus: Graft vs. host reaction (Simonsen splenomegaly assay). The following applies: for % Suppression / Number of surviving mice at the end of the experiment / Stim. index: Days 1-7. It is filed as in vivo, mouse. On the procedure:
Graft vs. host reaction. In vivo studies with mycalamide A utilized the […]→F1, GVHR model (Simonsen splenomegaly assay). CB6F1 male mice, 4 weeks of age, were injected intraperitoneally with 5×10^7 splenocytes from BALB/c male mice, 8 weeks of age, on day 0 (BALB/c→CB6F1). A syngeneic control group (CB6F1 →CB6F1) was similarly prepared and served as the negative control. For experiment 1, the grafted mice were divided into 5 treatment groups of 5 mice each. Groups were injected intraperitoneally with mycalamide A (dissolved initially in ethanol followed by dilution in sterile phosphate-buffered saline as a vehicle) or vehicle alone on days 1-7. For experiment 2, the grafted mice were divided into 7 treatment groups of 5 mice each and similarly injected intraperitoneally with mycalamide A, an immunosuppressive standard, didemnin B, or vehicle alone on days 1-7. On day 7 all groups were sacrificed, spleens excised, and the mean spleen weight and stimulation index calculated for each group. The stimulation index was calculated as follows: [formula] A spleen index of 1.3 or greater is considered a positive response.
^a CB6F1 mice (5 per group) were grafted with 5 × 10^7
BALB/c splenocytes, intraperitoneally on Day 0. Groups were injected
intraperitoneally with drug or vehicle on Days 1-7. Positive indicates
grafted mice receiving vehicle alone.
^b Number of surviving mice at the end of the experiment.
^c Stimulation index (SI) = (spleen weight of test group/body weight
of test group)/(spleen weight of syngeneic group/body weight of syngeneic
^d Suppression = [(SI of positive control) (SI of test group)]/[(SI
of positive control) (SI of syngeneic group)].
^e Didemnin B immunosuppressive standard.

Where [3] appears, read: Experiment #2, 0.005 mg/kg i.p.

On to `C=C1CC(OC)(C(O)C(=O)NC2OCOC3C2OC(CC(O)CO)C(C)(C)C3OC)OC(C)C1C` (centres unmarked) [Mycalamide A, mycalamide A], for which the “effect on PMA/CHO-mB7 stimulation of CD4+ cells” value in data set [1] is “blocks activation”. Moreover, the “% Suppression” value in data set [2] (Experiment #1, 0.01 mg/kg i.p.) was found to be 102%; in data set [2] (Experiment #1, 0.05 mg/kg i.p.), 0%; in data set [2] (Experiment #1, 0.1 mg/kg i.p.) it was 0%; in data set [2] (setting [3]) it was 0%; in data set [2] (Experiment #2, 0.01 mg/kg i.p.), 88%; in data set [2] (Experiment #2, 0.05 mg/kg i.p.), 0%. Also, the “% Suppression” value in data set [2] (Experiment #2, 0.1 mg/kg i.p.) was determined as 0%. Moreover, the “Number of surviving mice at the end of the experiment” value in data set [2] (Experiment #1, 0.01 mg/kg i.p.) was 5/5; in data set [2] (Experiment #1, 0.05 mg/kg i.p.), 0/5; in data set [2] (Experiment #1, 0.1 mg/kg i.p.), 0/5; in data set [2] (setting [3]), 5/5; in data set [2] (Experiment #2, 0.01 mg/kg i.p.), 5/5; in data set [2] (Experiment #2, 0.05 mg/kg i.p.) it was 0/5. Further, the “Number of surviving mice at the end of the experiment” value in data set [2] (Experiment #2, 0.1 mg/kg i.p.) is reported as 0/5. For the same molecule, the Stim. index is recorded as 0.99 in data set [2] (Experiment #1, 0.01 mg/kg i.p.); 1.92 in data set [2] (setting [3]); 1.06 in data set [2] (Experiment #2, 0.01 mg/kg i.p.). Also, in data set [2] (dosages higher than 0.01 mg/kg i.p., in words), the toxicity in mice result is listed as “toxic”. In addition, in data set [2] (dosages lower than 0.01 mg/kg i.p., in words), the “immunosuppression in GVHR” value is on record as “not immunosuppressive”.
